Assay results: publication PMC9114338 (Scientific Reports, 2022)
Where two headings read alike, the source gives them in different places.

Test: Intravenous TAF pharmacokinetic mouse study (plasma, PBMC, tissue homogenate)
Assay type: in vivo, C57BL/6 J mice
Conditions: female, C57BL/6 J, mouse, iv, 0.5 mg
Description: C57BL/6 J Mice (9 groups of 4 animals each; 36 mice total) were administered the study product (0.5 mg dose, 0.1 mL) by intravenous (IV) injection. Animals (N = 4) were sacrificed at the following timepoints: Day 1 (1, 3, 6, 12, 24 h), Day 2, 4, 8, and 14. Blood was collected by exsanguination along with select tissue specimens (vide infra).
The isolation of plasma and PBMCs from blood samples was carried out in a laminar flow hood using aseptic techniques, and the entire process was completed in under 45 min to minimize analyte metabolism. Blood was transferred into collection tubes containing sodium citrate (final concentration, 0.4% w/v), diluted using one volume equivalent of 1 × PBS solution, and mixed by inversion. The minimum final volume was 4.0 mL. Prior to the addition of blood samples, Ficoll-Paque media (MilliporeSigma, Burlington, MA, 3.2 mL) was transferred into a 12 mL LeucoSep tube (Greiner, Monroe, NC) and centrifuged at 1000 g for 20 s at room temperature, causing the media to settle just below the porous barrier. The homogenous, diluted blood-PBS mixture was transferred into the prepared LeucoSep tube and centrifuged at 1000 g for 10 min at room temperature, resulting in the formation of three layers above the porous barrier: (A) top layer, consisting of the plasma fraction; (B) middle, interface layer, containing the PBMCs; and (C) thin lower layer, just above the barrier, consisting of Ficoll-Paque media. Layer A (plasma) was transferred to empty 1.5 mL microfuge tubes in 0.5 mL aliquots, and flash-frozen in liquid nitrogen. Layer B (PBMCs) was transferred into an empty 15 mL centrifuge tube and PBS added to the 12 mL mark, followed by gentle inversion mixing. The suspension was centrifuged at 400 g for 15 min, the supernatant removed, and the pellet resuspended in PBS (10 mL) by gentle pipetting. An aliquot (10 µL) was removed from the suspension for cell counting and the remaining sample was centrifuged at 400 g for 15 min. The supernatant was removed without disturbing the cell pellet, which was treated with ice-cold 70% v/v methanol in molecular-grade water (1.0 mL). The mixture was mixed lightly by vortex agitation to lyse the cells, followed by transfer to a 2.0 mL cryovial that was flash-frozen in liquid nitrogen.
Vaginal, rectal, spleen, and thymus tissue samples were collected from sacrificed animals at Day 1 (12, 24 h), Day 4, and 8; rectal tissue samples were not collected at 12 h. The samples were transferred into pre-weighed sample tubes, weighed, and flash-frozen in liquid nitrogen.
PBMC results were normalized to the number of cells and reported as fmol/10^6 cells or as intracellular concentration based on cell volume, in nM. Tissue results were normalized to sample mass and reported as ng mg^-1 or fmol mg^-1.

Compound: C[C@H](Cn1cnc2c(N)ncnc21)OCP(=O)(O)O [TFV, tenofovir]
- half-life (rectal tissue, read-out: Terminal half-life in rectal tissue (NCA) (converted)): 43 h
- half-life (spleen, read-out: Terminal half-life in spleen (NCA) (converted)): 30.5 h
- half-life (thymus, read-out: Terminal half-life in thymus (NCA) (converted)): 20.1 h
- half-life (vaginal tissue, read-out: Terminal half-life in vaginal tissue (NCA) (converted)): 39.1 h
